From PubChem BioAssay AID1963848 (Molecular Pharmacology Branch, DTP, NCI, 2024)

Test system: 379773-124-R-J2-PDC spheroid viability
Experiment: Anticancer human tumor 379773-124-R-J2-PDC patient-derived endometrial carcinoma cell line growth inhibition [POLQ]
Settings: spheroids with HUVEC and MSC; for IC50: curve of first compound; for viability, T/C: stronger effect = lower value
Method in brief: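 Three-cell-type spheroids modelling solid tumor plus stroma served as the readout system; POL inhibitors were tested individually and in combination, concentration ranges set by clinical Cmax where known.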

[1] = second compound 0.0316 µM, first compound 0.0316 µM
[2] = second compound 0.0316 µM, first compound 0.1 µM
[3] = second compound 0.0316 µM, first compound 0.316 µM
[4] = second compound 0.0316 µM, first compound 1 µM
[5] = second compound 0.1 µM, first compound 0.0316 µM
[6] = second compound 0.1 µM, first compound 0.1 µM
[7] = second compound 0.1 µM, first compound 0.316 µM
[8] = second compound 0.1 µM, first compound 1 µM
[9] = second compound 0.316 µM, first compound 0.0316 µM
[10] = second compound 0.316 µM, first compound 0.1 µM
[11] = second compound 0.316 µM, first compound 0.316 µM
[12] = second compound 0.316 µM, first compound 1 µM
[13] = second compound 1 µM, first compound 0.0316 µM
[14] = second compound 1 µM, first compound 0.1 µM
[15] = second compound 1 µM, first compound 0.316 µM
[16] = second compound 1 µM, first compound 1 µM
[17] = second compound 3.16 µM, first compound 0.0316 µM
[18] = second compound 3.16 µM, first compound 0.1 µM
[19] = second compound 3.16 µM, first compound 0.316 µM
[20] = second compound 3.16 µM, first compound 1 µM
[21] = second compound 10 µM, first compound 0.0316 µM
[22] = second compound 10 µM, first compound 0.1 µM
[23] = second compound 10 µM, first compound 0.316 µM
[24] = second compound 10 µM, first compound 1 µM
[25] = second compound 0.0316 µM, first compound 3.16 µM
[26] = second compound 0.0316 µM, first compound 10 µM
[27] = second compound 0.1 µM, first compound 3.16 µM
[28] = second compound 0.1 µM, first compound 10 µM
[29] = second compound 0.316 µM, first compound 3.16 µM
[30] = second compound 0.316 µM, first compound 10 µM
[31] = second compound 1 µM, first compound 3.16 µM
[32] = second compound 1 µM, first compound 10 µM
[33] = second compound 3.16 µM, first compound 3.16 µM
[34] = second compound 3.16 µM, first compound 10 µM
[35] = second compound 10 µM, first compound 3.16 µM
[36] = second compound 10 µM, first compound 10 µM
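Note: spheroids exposed to drugs for seven days before readout.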
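Throughout, for viability, T/C: percent viability relative to DMSO vehicle control taken as 100%.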

C=CCn1c(=O)c2cnc(Nc3ccc(N4CCN(C)CC4)cc3)nc2n1-c1cccc(C(C)(C)O)n1 + COC1C(OC(N)=O)C(O)C(Oc2ccc3c(O)c(NC(=O)c4ccc(O)c(CC=C(C)C)c4)c(=O)oc3c2C)OC1(C)C
IC50 (second compound 0.0316 µM): 0.453 µM | IC50 (second compound 0.1 µM): 0.425 µM | IC50 (second compound 0.316 µM): 0.354 µM | IC50 (second compound 1 µM): 0.487 µM | IC50 (second compound 3.16 µM): 0.472 µM | IC50 (second compound 10 µM): 0.436 µM | viability, T/C (second compound 0.0316 µM, first compound 0.00316 µM): 84.1% | viability, T/C (second compound 0.0316 µM, first compound 0.01 µM): 74.3% | viability, T/C [1]: 89.5% | viability, T/C [2]: 79.7% | viability, T/C [3]: 71.9% | viability, T/C [4]: 1.84% | viability, T/C (second compound 0.1 µM, first compound 0.00316 µM): 82.8% | viability, T/C (second compound 0.1 µM, first compound 0.01 µM): 73.7% | viability, T/C [5]: 85.3% | viability, T/C [6]: 81.7% | viability, T/C [7]: 66.2% | viability, T/C [8]: 3.04% | viability, T/C (second compound 0.316 µM, first compound 0.00316 µM): 87.9% | viability, T/C (second compound 0.316 µM, first compound 0.01 µM): 74.8% | viability, T/C [9]: 88.3% | viability, T/C [10]: 88% | viability, T/C [11]: 55.3% | viability, T/C [12]: 2.39% | viability, T/C (second compound 1 µM, first compound 0.00316 µM): 80.6% | viability, T/C (second compound 1 µM, first compound 0.01 µM): 89.8% | viability, T/C [13]: 78.3% | viability, T/C [14]: 88.8% | viability, T/C [15]: 78.2% | viability, T/C [16]: 2.58% | viability, T/C (second compound 3.16 µM, first compound 0.00316 µM): 85.6% | viability, T/C (second compound 3.16 µM, first compound 0.01 µM): 86.9% | viability, T/C [17]: 79.6% | viability, T/C [18]: 77.5% | viability, T/C [19]: 74.8% | viability, T/C [20]: 3.31% | viability, T/C (second compound 10 µM, first compound 0.00316 µM): 77.5% | viability, T/C (second compound 10 µM, first compound 0.01 µM): 66.6% | viability, T/C [21]: 103% | viability, T/C [22]: 81% | viability, T/C [23]: 68.6% | viability, T/C [24]: 2.21%

CC1COCCN1c1cc(C2(S(C)(=N)=O)CC2)nc(-c2ccnc3[nH]ccc23)n1 (stereo unspecified) + COC1C(OC(N)=O)C(O)C(Oc2ccc3c(O)c(NC(=O)c4ccc(O)c(CC=C(C)C)c4)c(=O)oc3c2C)OC1(C)C
IC50 (second compound 0.0316 µM): 1.91 µM | IC50 (second compound 0.1 µM): 1.85 µM | IC50 (second compound 0.316 µM): 1.78 µM | IC50 (second compound 1 µM): 1.93 µM | IC50 (second compound 3.16 µM): 1.79 µM | IC50 (second compound 10 µM): 1.67 µM | viability, T/C [1]: 100% | viability, T/C [2]: 86.1% | viability, T/C [3]: 78.5% | viability, T/C [4]: 78.2% | viability, T/C [25]: 28.9% | viability, T/C [26]: 5.71% | viability, T/C [5]: 92% | viability, T/C [6]: 85.2% | viability, T/C [7]: 91.3% | viability, T/C [8]: 79.9% | viability, T/C [27]: 24% | viability, T/C [28]: 5.69% | viability, T/C [9]: 91.1% | viability, T/C [10]: 82.1% | viability, T/C [11]: 77.1% | viability, T/C [12]: 75.7% | viability, T/C [29]: 24.9% | viability, T/C [30]: 7.92% | viability, T/C [13]: 87% | viability, T/C [14]: 82.1% | viability, T/C [15]: 87% | viability, T/C [16]: 79% | viability, T/C [31]: 28% | viability, T/C [32]: 7.44% | viability, T/C [17]: 78% | viability, T/C [18]: 88.2% | viability, T/C [19]: 81.5% | viability, T/C [20]: 67.5% | viability, T/C [33]: 32.6% | viability, T/C [34]: 8.77% | viability, T/C [21]: 85.6% | viability, T/C [22]: 74.4% | viability, T/C [23]: 79.8% | viability, T/C [24]: 61.7% | viability, T/C [35]: 34.5% | viability, T/C [36]: 5.53%

CCCS(=O)(=O)Nc1ccc(F)c(C(=O)c2c[nH]c3ncc(-c4ccc(Cl)cc4)cc23)c1F + COC1C(OC(N)=O)C(O)C(Oc2ccc3c(O)c(NC(=O)c4ccc(O)c(CC=C(C)C)c4)c(=O)oc3c2C)OC1(C)C
IC50 (second compound 0.0316 µM): > 10 µM | IC50 (second compound 0.1 µM): > 10 µM | IC50 (second compound 0.316 µM): > 10 µM | IC50 (second compound 1 µM): > 10 µM | IC50 (second compound 3.16 µM): > 10 µM | IC50 (second compound 10 µM): > 10 µM | viability, T/C [1]: 94.2% | viability, T/C [2]: 86.8% | viability, T/C [3]: 83.8% | viability, T/C [4]: 87.9% | viability, T/C [25]: 70.5% | viability, T/C [26]: 57.9% | viability, T/C [5]: 86.2% | viability, T/C [6]: 87.7% | viability, T/C [7]: 88.3% | viability, T/C [8]: 80.3% | viability, T/C [27]: 73.1% | viability, T/C [28]: 55.4% | viability, T/C [9]: 77.1% | viability, T/C [10]: 75.6% | viability, T/C [11]: 76.8% | viability, T/C [12]: 77.6% | viability, T/C [29]: 66.2% | viability, T/C [30]: 52.9% | viability, T/C [13]: 87.6% | viability, T/C [14]: 84.4% | viability, T/C [15]: 81.8% | viability, T/C [16]: 77.8% | viability, T/C [31]: 73.6% | viability, T/C [32]: 58.9% | viability, T/C [17]: 73.5% | viability, T/C [18]: 76.2% | viability, T/C [19]: 75.8% | viability, T/C [20]: 76.4% | viability, T/C [33]: 75.7% | viability, T/C [34]: 61.3% | viability, T/C [21]: 78.5% | viability, T/C [22]: 85.4% | viability, T/C [23]: 79.8% | viability, T/C [24]: 66.5% | viability, T/C [35]: 75.9% | viability, T/C [36]: 60.2%
